Experiment [1] has as its target T1, rCsHK (Clonorchis sinensis, UniProt G7YJ23).
T1 construct: gene CLF_109217
T1 sequence (G7YJ23 1-449): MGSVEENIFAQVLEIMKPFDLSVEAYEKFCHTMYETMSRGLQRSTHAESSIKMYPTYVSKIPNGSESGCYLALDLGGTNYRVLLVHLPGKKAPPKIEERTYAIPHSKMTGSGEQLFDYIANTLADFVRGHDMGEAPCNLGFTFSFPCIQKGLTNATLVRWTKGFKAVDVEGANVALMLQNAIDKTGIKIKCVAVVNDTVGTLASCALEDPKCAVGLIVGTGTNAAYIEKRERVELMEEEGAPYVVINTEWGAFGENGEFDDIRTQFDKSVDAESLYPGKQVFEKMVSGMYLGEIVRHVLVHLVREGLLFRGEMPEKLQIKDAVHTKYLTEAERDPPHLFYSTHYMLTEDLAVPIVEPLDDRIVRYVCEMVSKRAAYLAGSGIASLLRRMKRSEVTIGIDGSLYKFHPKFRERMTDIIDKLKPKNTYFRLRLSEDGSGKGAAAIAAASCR
Briefly: G6PD-coupled NADPH formation at […] nm, Hill fit. It counts as biochemical. The settings on record: 3 mM glucose, 15 mM MgCl2, pH 8.5.

Experiment [2] addresses T1, rCsHK. Briefly: G6PD-coupled NADPH formation at […] nm. It counts as biochemical. The settings on record: read-out: % inhibition at 10 mM.

Here are results for six compounds from paper PMC4370448, “Advanced Enzymology, Expression Profile and Immune Response of Clonorchis sinensis Hexokinase Show Its Application Potential for Prevention and Control of Clonorchiasis” (PLoS Neglected Tropical Diseases, 2015).

By inhibition is commonly meant the relative decrease from the control value, in per cent.

`Nc1ncnc2c1ncn2[C@@H]1O[C@H](COP(=O)(O)O)[C@@H](O)[C@H]1O` [AMP]: the “G6PD-coupled NADPH formation at 340 nm, Hill fit” value (“G6PD-coupled NADPH formation” below) at rCsHK [1] (0-5 mM, allosteric activator, mixed K+V+ with respect to ATP) is reported as “AMP exhibited a mixed allosteric K+V+ effect”.

Take `Nc1ncnc2c1ncn2[C@@H]1O[C@H](COP(=O)(O)OP(=O)(O)OP(=O)(O)O)[C@@H](O)[C@H]1O` [ATP]: the inhibition at 10000 µM at rCsHK [2] was 13.8%.

In the case of `Nc1ccn([C@@H]2O[C@H](COP(=O)(O)OP(=O)(O)OP(=O)(O)O)[C@@H](O)[C@H]2O)c(=O)n1` [CTP], the inhibition at 10000 µM at rCsHK [2] worked out at 8.6%.

Turning to `C=C(OP(=O)(O)O)C(=O)O` [PEP], the “G6PD-coupled NADPH formation” value at rCsHK [1] (0-10 mM, allosteric activator, mixed K+V+ with respect to ATP) is “PEP displayed allosteric activation of rCsHK with respect to ATP”.

As for `Cc1cn([C@H]2C[C@H](O)[C@@H](COP(=O)(O)OP(=O)(O)OP(=O)(O)O)O2)c(=O)[nH]c1=O` [TTP], at rCsHK [2], the inhibition at 10000 µM was 14.3%.

Turning to `O=C(O)CC(O)(CC(=O)O)C(=O)O` [citrate], the “G6PD-coupled NADPH formation” value at rCsHK [1] (0-10 mM, allosteric, K+V+ activator at 5 and 10 mM, net inhibition (K-V+) at 2 mM, with respect to ATP) is reported as “Citrate exhibited an unusual mixed allosteric effect on rCsHK with respect to ATP”.
